Values quoted from earlier work as cited in patent publication EP0356866A2, “Phosphorus-containing squalene synthetase inhibitors and method” (E.R. SQUIBB & SONS, INC., priority 1988, dated 1990).

Biological target: T1, avian liver farnesyl diphosphate synthetase (Gallus gallus, UniProt P08836)
T1 construct: host or cells: avian liver
T1 sequence (P08836 1-367): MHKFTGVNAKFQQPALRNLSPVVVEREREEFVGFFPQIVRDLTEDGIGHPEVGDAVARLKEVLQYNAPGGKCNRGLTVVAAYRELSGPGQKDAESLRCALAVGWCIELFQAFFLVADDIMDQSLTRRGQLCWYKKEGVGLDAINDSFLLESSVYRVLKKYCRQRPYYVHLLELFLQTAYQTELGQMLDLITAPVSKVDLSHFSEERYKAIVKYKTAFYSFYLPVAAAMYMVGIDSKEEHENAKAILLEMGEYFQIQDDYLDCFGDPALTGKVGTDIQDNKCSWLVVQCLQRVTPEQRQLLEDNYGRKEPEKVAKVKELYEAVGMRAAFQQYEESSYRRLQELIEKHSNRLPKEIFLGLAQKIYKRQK
Conditions: competitive inhibitors of the 1′-4-condensation between isopentenyl diphosphate and geranyl diphosphate

SMILES | Ki [µM]
C=C(C)CCCP(=O)(O)CP(=O)(O)O [G] | 19
CC(C)=CCCP(=O)(O)CP(=O)(O)O [H] | 71
